# Experimental data as given in patent US8486891B2, “Nasal calcitonin formulations containing chlorobutanol” (Par Pharmaceutical, Inc., priority 2003, dated 2013).
# Legend:
# rat trachea = assay: Inhibition of ciliary beating frequency of rat trachea; assay type: cell-based
# Description: The prior art teaches away from the use of chlorobutanol stating that at 0.6% concentration, the chlorobutanol caused more than 50% inhibition of ciliary beating frequency of rat trachea.
# [1] = ingredient as supplied (EP grade); cited from earlier work
# [2] = healthy volunteers, decongestant nasal spray containing the preservative; cited from earlier work
# frog palate = conditions: ex vivo frog palate; Braga et al. 1992; cited from earlier work
# [3] = tested on: respiratory mucosal tissue; conditions: in vitro exposure; Berg et al. 1994; cited from earlier work
compound,measurement,setting,value
CC(C)(O)C(Cl)(Cl)Cl [chlorobutanol],effect on ciliary beating frequency of rat trachea,rat trachea; chlorobutanol concentration less than 0.4%,greatly reduced
same,effect on ciliary beating frequency of rat trachea,rat trachea; chlorobutanol concentration of around 0.25%,totally eliminated
"Salmon Calcitonin [Salmon Calcitonin, EP]",Potency,[1],Potency of 6236 IU/mg
benzalkonium chloride,effect on rhinitis,[2],aggravate rhinitis
same,mucocilary transport velocity,frog palate,significant slowing
same,morphological effect on respiratory mucosal tissue,[3],severe morphological alterations
